# Test results published in patent publication US7390782B2, “Methods and products related to metabolic interactions in disease” (University of Vermont and State Agricultural College, priority 1998, dated 2008).
# “Also recorded” adds a separate entry of the source.
# How the values were obtained:
# L1210/DDP [1] = assay: Fas expression by flow cytometry (FITC anti-Fas over isotype); type: cell-based; details: for Fas expression: L1210 DDP, in the presence of staurosporine or ADRIAMYCIN
# Description: (§1) 3. Fas Expression Increases as a Function of Glucose: We investigated the effect of increasing concentrations of glucoseon cell surface Fas expression. L1210 and L1210/DDP cells were cultured in glucose free RPMI media or in media supplemented with insulin and glucose for 16 hours. Intra- and extracellular Fas expression was determined by labeling the cells with FITC-conjugated anti-Fas antibodies (Pharmingen), or FITC-conjugated isotype control, then subtracting the fluorescence intensity of the isotype staining from Fas staining for each treatment group.
# (§2) L1210, upper panels, and L1210/DDP cells, lower panels, were cultured in glucose free RPMI media, filled circles, or in media supplemented with insulin and glucose, squares, for 16 hours. Intra- and extracellular Fas expression was determined by labeling the cells with FITC-conjugated anti-Fas antibodies, or FITC-conjugated isotype control, then subtracting the fluorescence intensity of the isotype staining from Fas staining for each treatment group (FIG. 2). Results are presented as geometric mean fluorescence over background.
# (§3) 4. […] We treated L1210 or L1210 DDP cells with the staurosporine, which inhibits protein kinase C and increases mitochondrial membrane potential, or an anti-cancer agent to which both cells are sensitive, ADRIAMYCIN™. Fas expression was increased or induced on both L1210 and L1210 DDP, respectively, in the presence of staurosporine or ADRIAMYCIN™ (FIG. 3). The L1210 DDP changed morphologically and began to divide rapidly, changes which appeared to correspond with a reversion back to the phenotype of the L1210 cells.
# (§4) FIG. 23 is a graph depicting Sodium Acetate as a mitochondrial modifying agent. L1210 or L1210DDP cells were cultured in the presence of graded concentrations of sodium acetate in the medium. Cells were stained with Jo2.2, a fluorescein conjugated anti-Fas antibody, or an isotype control. Cell surface staining was measured flow cytometrically. The Percentage of mean fluorescence intensity over the isotype control was plotted.
# L1210 [2] = assay: as above; type: cell-based; details: for Fas expression: in the presence of staurosporine or ADRIAMYCIN
# Description: as §1, §2, §3, §4
# [3] = test system: resting B-cells from (NZB×NZW)F1 and (NZB×SWR)F1 mice; assay: cAMP in resting B-cells from autoimmune strains; type: cell-based
# Description: Following the protocols as described in Newell, M K, et al. (Proc Natl Acad Sci, USA, 1993, 90:10459-10463) for resting B lymphocytes from normal mice, we isolated resting B-cells from spleens of (NZB×NZW)F1 and (NZB×SWR)F1 mice by Percoll gradient separation and treated the cells with antibodies to class II molecules, FIG. 12. Experiments utilized mice younger than 3 months of age. […] Resting (1.079<r<1.085) B-cells from normal; […], animals were treated for 10 min at 37° C. with stimuli indicated. Levels of cAMP were determined as described in FIG. 1. Means (and standard errors) from three experiments are shown for normal animals. The means from two experiments are shown for each of the F1 hybrid animals.
# [4] = test system: resting B-cells from (NZB×NZW)F1 and (NZB×SWR)F1 mice; assay: Apoptosis (DNA fragments) in resting B-cells from autoimmune strains; type: cell-based
# Description: We stimulated both resting and activated B-cells from (NZB×NZW)F1 and (NZB×SWR)F1 mice with antibodies to class II molecules. Young animals, prior to the development of lupus-like autoantibody and renal disease, were used in these studies. […] Agarose gel electrophoresis of DNA fragments from high density resting B-cells (1.079<r<1.085) was carried out as described in FIG. 2. Normalized areas produced by scanning densitometry on the gels shown above for normal; (NZB×SWR)F1; or (NZB×NZW)F1, animals. […] For normal animals, the mean and standard error of four experiments are shown. For the (NZB×NZW)F1 animals, representative data from one of two experiments is shown and for (NZB×SWR)F1 animals, a single experiment is shown. Because experiments were performed on different days it is impossible to compare background levels of apoptosis between strains; however, it should be noted that there is significant variability in background levels of apoptosis, with those for the (NZB×NZW)F1 animals apparently tending to be higher than for the other strains.
# L1210/DDP [5] = assay: Methotrexate-induced death, flow cytometry and DNA fragment analysis; type: cell-based; details: 10^-8 M methotrexate, 24 hours
# Description: (§5) Additionally, L1210 and L1210/DDP cells were treated with 10−8 M methotrexate for 24 hours. […] The forward scatter low populations took up ethidium bromide differentially. The L1210 cells took up a moderate amount. […] This latter phenotype—loss in forward scatter and membrane permeability with no “DNA laddering”—is the hall mark of oncosis.
# L1210 [6] = assay: as above; type: cell-based; details: 10^-8 M methotrexate, 24 hours
# Description: as §5
# [7] = test system: splenic lymphocytes from C57BL/6, C57BL6.lpr and C57BL.gld; assay: Viability of splenic lymphocytes cultured with methotrexate; type: cell-based, mice; details: Fas deficient lymphocytes; 5×10^-8 M methotrexate, 18 or 32 hours
# Description: 8. Fas Deficient Lymphocytes are also drug resistant to methotrexate: We isolated splenic lymphocytes from aged-matched wild type C57BL/6 mice and C57BL6.lpr and C57BL.gld. Splenocytes from C57BL/6 lpr or gld animals were isolated, red cells depleted, and single cell suspensions prepared. Cells were cultured in the absence or presence of 5×10^−8 M methotrexate for 18 or 32 hours. Cells were harvested and viability was determined by flow cytometric analysis and confirmed with trypan blue exclusion.
# B16 melanoma cells [8] = details: increasing concentrations
# Description: FIG. 18 depicts the rates of glucose utilization and oxidation in B16 melanoma cells. Again cells were cultured in the presence of varying concentration of sodium acetate.
# B16 melanoma cells [9] = details: increasing concentrations; remark: listed apart in the source
# Description: B16 cells were cultured in the in the presence of different concentrations of sodium acetate and Fas expression was measured.
# L1210DDP = details: FasL bearing cells over mock-transfectants
# Description: (§6) Cells cultured with acetate were loaded with 51 Cr and plated onto FasL bearing or mock transfected fibroblast to determine sensitivity to Fas-induced cell death. Results are reported as percent chromium release from cells in the presence of FasL bearing cells over mock-transfectants.
# L1210 [10] = details: FasL bearing cells over mock-transfectants
# Description: as §6
# TrkA cells = assay: Cytofluorometric analysis of Fas, B7.1, B7.2 cell surface expression; type: cell-based, Rat; details: Trk cells, 50 ng/ml
# Description: (§7) Cell Culture: Rat pheochromocytoma cell lines, including PC12, Trk and v-Crk cells were a kind gift from Dr. Raymond Birge. They were maintained in complete RPMI 1640 (GIBCO) supplemented with 7% heat inactivated fetal calf serum and 3% heat inactivated horse serum at 37° C. in a humidified incubator with 5% CO2. The PC12 transfectants were generated as described previously (Glassman et al., 1997, Hempstead et al., 1994). Cells were plated in 6 well culture plates at a concentration ranging from 2-8×10^6 cells/well, according to the cell type's growth kinetics, and 5 ml complete medium. NGF-7S from mouse submaxillary glands (Sigma Chemical Co.) or EGF, kindly provided by Dr. Raymond Birge, was added at a concentration of 50 ng/ml culture medium and the cells were incubated for 24 or 48 hours.
# (§8) Cytofluorometric Analysis: Cells were harvested after a 10 minute incubation period on ice in order to diminish their adherence to the plastic culture flask. They were spun at 1210 rpm, for 7 minutes, resuspended in medium and counted after trypan blue staining. Equal numbers of cells were placed in 12×75 mm flow tubes (range: 0.1-1×10^6 cells/tube), washed in PBS and 5% FBS and stained at 4° C. The following stains were used: a) fluorescein isothiocyanate (FITC) hamster IgG isotype standard, b) FITC anti-mouse Fas, c) FITC anti-mouse CD80 (B7.1), d) phycoerythrin (PE) mouse IgG2b K isotype standard and e) PE anti-mouse CD86 (B7.2). All antibodies were obtained from Pharmingen.
# (§9) After incubation on ice for 20 minutes, cells were washed, resuspended in PBS and 5% FCS and analyzed by flow cytometry (Becton Dickinson). Histogram plots were derived from dot plots gated on the live cell population according to the forward versus side scatter ratio (Cell Quest Program). The absolute Fas, B7.1 and B7.2 values presented on the graphs were obtained by subtracting the […]. Values were considered subjectively positive (+) if the difference was statistically significant (p<0.001) according to the applied Kilmogorov-Smirnov statistical analysis.
# PC12 cells = assay: as above; type: cell-based, Rat; details: 50 ng/ml
# Description: as §7, §8, §9
# v-Crk cells = assay: as above; type: cell-based, Rat
# Description: as §7, §8, §9
molecule,measurement,setting,value
COc1cccc2c1C(=O)c1c(O)c3c(c(O)c1C2=O)C[C@@](O)(C(=O)CO)C[C@@H]3O[C@H]1C[C@H](N)[C@H](O)[C@H](C)O1 [ADRIAMYCIN™],Fas expression,L1210/DDP [1],induced
same,Fas expression,L1210 [2],increased
CC(C)NCC(O)c1ccc(O)c(O)c1 (stereo not shown) [isoproterenol],intracellular cAMP response,[3],normal
same,apoptosis,[4]; (NZB×NZW)F1 B-cells,minimal evidence of apoptosis
same,apoptosis,[4]; B-cells from (NZB×SWR)F1 mice,intermediate level
CN(Cc1cnc2nc(N)nc(N)c2n1)c1ccc(C(=O)N[C@@H](CCC(=O)O)C(=O)O)cc1 [methotrexate],DNA fragments (laddering),L1210/DDP [5],did not
same,DNA fragments (laddering),L1210 [6],produced a ladder of nucleosome sized fragments indicative of apoptosis
same,susceptibility to methotrexate-induced apoptosis,[7],decreased susceptibility
CC(=O)[O-].[Na+] [sodium acetate],glucose oxidation,B16 melanoma cells [8],decreased
same,glucose utilization,B16 melanoma cells [8],decreased
same,cell surface Fas expression,"L1210/DDP [1]; L1210DDP, graded concentrations of sodium acetate in the medium",increases cell surface Fas expression
same,cell surface Fas expression,L1210 [2]; graded concentrations of sodium acetate in the medium,increases cell surface Fas expression
same,levels of cell surface Fas,B16 melanoma cells [9]; non-permeabilized B16 cells,increased
same,levels of intracellular Fas,B16 melanoma cells [9]; permeabilized B16 cells,declined
same,susceptibility to Fas-dependent cell death (percent chromium release),L1210DDP,results in susceptibility to Fas-dependent cell death
same,susceptibility to Fas-dependent cell death (percent chromium release),L1210 [10],results in susceptibility to Fas-dependent cell death
CN[C@@H]1C[C@H]2O[C@@](C)([C@@H]1OC)n1c3ccccc3c3c4c(c5c6ccccc6n2c5c31)C(=O)NC4 [staurosporine],Fas expression and susceptibility to drug-induced apoptosis,L1210/DDP [1]; L1210 DDP cells treated with staurosporin,restores Fas expression and susceptibility to drug-induced apoptosis
same,Fas expression,L1210/DDP [1],induced
same,Fas expression,L1210 [2],increased
"EGF: EGF, kindly provided by Dr. Raymond Birge",B7.1 cell surface expression,TrkA cells; stimulation 24 hours,lowered
same,Fas cell surface expression,TrkA cells; stimulation 24 hours,downregulates Fas expression
same,B7.1 cell surface expression,TrkA cells; stimulation 48 hours,reestablished
same,B7.2 cell surface expression,TrkA cells; stimulation 48 hours,most significant
same,Fas cell surface expression,TrkA cells; stimulation 48 hours,totally abrogates Fas expression
same,B7.1 cell surface expression,PC12 cells; stimulation 24 hours,significantly lowers
same,Fas cell surface expression,PC12 cells; stimulation 24 hours,downregulates Fas expression
same,B7.1 cell surface expression,PC12 cells; stimulation 48 hours,reestablishes the basal values
same,B7.2 cell surface expression,PC12 cells; stimulation 48 hours,up-regulates B7.2 expression
same,Fas cell surface expression,PC12 cells; stimulation 48 hours,totally abrogates Fas expression
same,B7.1 cell surface expression,"v-Crk cells; 50 ng/ml, 24 and 48 hours of culture",significantly increases B7.1 expression
same,Fas cell surface expression,"v-Crk cells; 50 ng/ml, stimulation 24 hours",significantly up-regulates Fas expression; also recorded: increases three-fold
same,B7.2 cell surface expression,"v-Crk cells; 50 ng/ml, stimulation 48 hours",significant induction
same,Fas cell surface expression,"v-Crk cells; 50 ng/ml, stimulation 48 hours",down-regulated and abrogated
same,B7.2 cell surface expression,v-Crk cells; after withdrawal,again undetectable
